From publication PMC8193794 (Biochemistry, 2020)
Where two headings read alike, the source gives them in different places.

What was measured:
Aβ42 = test: Thioflavin T; type: biochemical; details: 37 °C
Aβ40-HN interactions = details: cited from earlier work
biotin-humanin [1] = test: ELISA
biotin-humanin [2] = test: ELISA; remark: listed apart in the source
biotin-humanin [3] = test: ELISA; remark: listed apart in the source
Humanin (HN) peptide = test: ELISA
biotin-humanin [4] = test: ELISA; remark: listed apart in the source
Aβ in H1299 medium = test: Aβ ELISA; type: cell-based, human; details: Figure 11B; H1299 medium immunodepleted of the named component
[5] = system: amyloid complexes in A549 conditioned medium; type: binding, human
[6] = system: A549 human lung cancer cell; details: residues 215–232 of IGFBP-3 bind hyaluronan, blocking CD44; cited from earlier work
[7] = system: amyloid oligomers and fibrils in H1299 medium; test: Dot blot of H1299 medium with exogenous IGFBP-3; type: cell-based, human
H1299 cells [8] = test: MTT assay, H1299 cells; type: cell-based, human; details: medium immunodepleted of the named component, 48 h
A549 cells [9] = test: MTT assay, A549 cells; type: cell-based, human; details: medium immunodepleted of the named component, 48 h
Aβ40 = test: Thioflavin T; type: biochemical; details: 37 °C
[10] = system: HN-Aβ (Aβ40 or Aβ42) complex; test: ELISA, HN-Aβ binding with increasing AChE, without or with IGFBP-3
[11] = system: 6E10-bound Aβ complex from H1299 conditioned medium; test: 6E10 capture ELISA of H1299 conditioned medium with exogenous IGFBP-3; type: binding, human
[12] = system: 6E10-bound Aβ complex from A549 conditioned medium; test: 6E10 capture ELISA of A549 conditioned medium with exogenous IGFBP-3; type: binding, human
[13] = system: Aβ / amyloid oligomers and fibrils in A549 medium; test: Dot blot of immunodepleted A549 medium; type: cell-based, human; details: A549 medium immunodepleted of the named component; for anti-A11 oligomer signal after immunodepletion: Figure 9C,F
Aβ in A549 medium = test: Aβ ELISA; type: cell-based, human; details: Figure 11A; A549 medium immunodepleted of the named component
A549 cells [14] = test: Apoptosis, annexin V ELISA, A549 cells; type: cell-based, human; details: medium immunodepleted of the named component, 48 h
[15] = system: amyloid oligomers and fibrils in A549 medium; test: Dot blot of A549 medium with exogenous IGFBP-3; type: cell-based, human; details: 400 nM vs 100 nM IGFBP-3, A549 medium
H1299 cells [16] = test: Apoptosis, annexin V ELISA, H1299 cells; type: cell-based, human; details: medium immunodepleted of the named component, 48 h
[17] = molecular target: Amyloid-β (Aβ) of the conditioned media of A549 and H1299 cells (human (endogenous in A549 and H1299)); test: ELISA
[18] = molecular target: Amyloid-β (Aβ) of the conditioned media of A549 and H1299 cells (human (endogenous in A549 and H1299)); test: ELISA; remark: listed apart in the source
[19] = system: Aβ from A549 conditioned medium bound to 6E10; test: 6E10 capture ELISA of A549 conditioned medium with exogenous HN; type: binding, human
[20] = system: complex between HN and Aβ42; test: ELISA, IGFBP-3 competition for the HN-Aβ42 complex; type: binding; details: AChE (100 nM), HN (100 nM)
[21] = system: Aβ / amyloid oligomers and fibrils in H1299 medium; test: Dot blot of immunodepleted H1299 medium; type: cell-based, human; details: Figure 9B,E; H1299 medium immunodepleted of the named component
[22] = system: complex between HN and Aβ40; test: ELISA, IGFBP-3 competition for the HN-Aβ40 complex; type: binding; details: AChE (100 nM), HN (100 nM)
Aβ (12–28) and Aβ (1–16) = details: cited from earlier work
[23] = system: Aβ from H1299 conditioned medium bound to 6E10; test: 6E10 capture ELISA of H1299 conditioned medium with exogenous HN; type: binding, human
[24] = Figure 8A, added IGFBP-3, cell line not stated
[25] = Figure 8A, cell line not stated
[26] = Figure 8B, A549 medium, added IGFBP-3

Aβ42 [reference compound]
aggregation kinetics compared to Aβ40 (ThT) (Aβ42; Aβ42 2 μM, 335 min): faster aggregation kinetics

HN (5–15) (GFSCLLLLTSE; Humanin; UniProt Q8IVG9 5-15, looked up, fragment)
inhibition of Aβ40-HN interactions (Aβ40-HN interactions): more effective inhibitor of Aβ40-HN interactions than Aβ (17–28)

Recombinant human insulin-like growth factor binding protein-3 (IGFBP-3) (from UniProt P17936 28-291) (natural protein)
IC50 (biotin-humanin [1]): 39 nM
IC50 (biotin-humanin [2]): 58 nM
IC50 (biotin-humanin [3]): 93 nM
percent decrease of the biotinylated Aβ signal on HN at 0.2 μM IGFBP-3 (Humanin (HN) peptide): 50%
IC50 (biotin-humanin [4]): 74 nM

IGFBP-3
effect of immunodepletion on total Aβ or oligomer (Aβ in H1299 medium): No effects
detection in complex with any of the antibodies tested (6E10, 4G8, A11, LOC) [5]: No IGFBP-3 was detected
A549 cell viability [6]: reducing A549 human lung cancer cell viability
anti-LOC signal, cell media in which increase was observed ([7]; 100 nM IGFBP-3 added, H1299 medium (no increase)): only in the A549 medium
further effect of 400 nM IGFBP-3 on A11/LOC signals ([7]; 400 nM vs 100 nM IGFBP-3, H1299 medium): did not have any further effect
cell viability after treatment with immunodepleted medium (H1299 cells [8]): no effect
cell viability after treatment with immunodepleted medium (A549 cells [9]): increased the A549 cell viability
effect of 2 μM IGFBP-3 on HN block of Aβ40 aggregation (ThT) (Aβ40; Aβ40 2 μM, HN 2 μM, IGFBP-3 2 μM, 335 min, no AChE): reduced the ability of HN to block aggregation of Aβ, but only partially
effect of 6 μM IGFBP-3 on HN block of Aβ40 aggregation (ThT) (Aβ40; Aβ40 2 μM, HN 2 μM, IGFBP-3 6 μM, 335 min, no AChE): completely abolished the ability of HN to block the aggregation of Aβ
Aβ40 aggregation with 6 μM IGFBP-3 in presence of AChE and HN (ThT) (Aβ40; Aβ40, AChE, HN each 2 μM, IGFBP-3 6 μM): aggregation kinetics comparable to those of Aβ incubated with only AChE
effect of 2 μM IGFBP-3 on HN block of Aβ42 aggregation (ThT) (Aβ42; Aβ42 2 μM, HN 2 μM, IGFBP-3 2 μM, 335 min, no AChE): reduced the ability of HN to block aggregation of Aβ, but only partially
effect of 6 μM IGFBP-3 on HN block of Aβ42 aggregation (ThT) (Aβ42; Aβ42 2 μM, HN 2 μM, IGFBP-3 6 μM, 335 min, no AChE): completely abolished the ability of HN to block the aggregation of Aβ
Aβ42 aggregation with 6 μM IGFBP-3 in presence of AChE and HN (ThT) (Aβ42; Aβ42, AChE, HN each 2 μM, IGFBP-3 6 μM): aggregation kinetics comparable to those of Aβ incubated with only AChE
HN-Aβ binding signal ([10]; 2 μM IGFBP-3, HN and Aβ 0.2 μM): completely abolished the signal
IGFBP-3 detection in 6E10 complex after adding 400 nM IGFBP-3 ([11]; Figure 8A-C): did not result in detection of IGFBP-3
LOC signal with added IGFBP-3 ([11]; Figure 8C): no signal was observed
A11 signal fold increase relative to control with no IGFBP-3 ([11]; Figure 8C, added IGFBP-3): ~ 2.5 fold
IGFBP-3 detection in 6E10 complex after adding 400 nM IGFBP-3 ([12]; A549 medium, Figure 8A-C): did not result in detection of IGFBP-3
A11 (amyloid oligomer) signal fold increase relative to control [12, 24]: ~ 3.9 fold
LOC (amyloid fibrils) signal fold increase relative to control [12, 24]: ~ 1.7 fold
HN in 6E10 complex upon addition of 50 nM IGFBP-3 [12, 25]: diminished
HN in 6E10 complex upon addition of 100 nM IGFBP-3 [12, 25]: completely depleted
A11 signal fold increase relative to control without IGFBP-3 [12, 26]: ~ 3.9 fold
LOC signal fold increase relative to control with no IGFBP-3 [12, 26]: ~ 1.59 fold
anti-A11 oligomer signal after immunodepletion [13]: No difference
effect of immunodepletion on total Aβ or oligomer (Aβ in A549 medium): No effects
apoptosis after treatment with immunodepleted medium (A549 cells [14]): reduced apoptosis
further effect of 400 nM IGFBP-3 on A11/LOC signals [15]: did not have any further effect
apoptosis after treatment with immunodepleted medium (H1299 cells [16]): no effect

Humanin (HN) peptide
fold increase of the HN signal at 400 nM added HN over no added HN [17]: 2.5 fold
fold decrease of AChE bound to Aβ with added HN [18]: 1.5 fold
fold increase of the HN signal at 400 nM added HN over no added HN [18]: 2.5 fold

HN (5–15, L11S) (GFSCLLSLTSE; Humanin; UniProt Q8IVG9 5-15, looked up, variant L11S)
inhibition of Aβ40-HN interactions (Aβ40-HN interactions): reduced the ability of HN (5–15) to compete with the Aβ40-HN interactions

B1: AChE (protein)
chain: EGREDAELLVTVRGGRLRGIRLKTPGGPVSAFLGIPFAEPPMGPRRFLPPEPKQPWSGVVDATTFQSVCYQYVDTLYPGFEGTEMWNPNRELSEDCLYLNVWTPYPRPTSPTPVLVWIYGGGFYSGASSLDVYDGRFLVQAERTVLVSMNYRVGAFGFLALPGSREAPGNVGLLDQRLALQWVQENVAAFGGDPTSVTLFGESAGAASVGMHLLSPPSRGLFHRAVLQSGAPNGPWATVGMGEARRRATQLAHLVGCPPGGTGGNDTELVACLRTRPAQVLVNHEWHVLPQESVFRFSFVPVVDGDFLSDTPEALINAGDFHGLQVLVGVVKDEGSYFLVYGAPGFSKDNESLISRAEFLAGVRVGVPQVSDLAAEAVVLHYTDWLHPEDPARLREALSDVVGDHNVVCPVAQLAGRLAAQGARVYAYVFEHRASTLSWPLWMGVPHGYEIEFIFGIPLDPSRNYTAEEKIFAQRLMRYWANFARTGDPNEPRDPKAPQWPPYTAGAQQYVSLDLRPLEVRRGLRAQACAFWNRFLPKLLSATDTLDEAERQWKAEFHRWSSYMVHWKNQFDHYSKQDRCSDL
AChE bound to Aβ (6E10 capture) [19]: detectable levels
effect of added AChE on IGFBP-3 competition with Aβ42 for HN [20]: no difference
effect of immunodepletion on total Aβ or oligomer (Aβ in H1299 medium): No change
Aβ detected with anti-6E10 after immunodepletion [21]: no change
effect of added AChE on IGFBP-3 competition with Aβ40 for HN [22]: no difference
binding to Aβ fragments (Aβ (12–28) and Aβ (1–16)): binds to Aβ (12–28) and the Aβ (1–16) peptide
AChE bound to Aβ (6E10 capture) [23]: Barely detectable levels
cell viability after treatment with immunodepleted medium (H1299 cells [8]): no effect
cell viability after treatment with immunodepleted medium (A549 cells [9]): increased the A549 cell viability
aggregation of Aβ40 with AChE (ThT) (Aβ40; Aβ40 2 μM, AChE 2 μM, 335 min): increased aggregation with changes in both the lag phase and the final ThT fluorescence value
aggregation of Aβ42 with AChE (ThT) (Aβ42; Aβ42 2 μM, AChE 2 μM, 335 min): increased aggregation with changes in both the lag phase and the final ThT fluorescence value
change in signal with increasing AChE in presence of IGFBP-3 ([10]; 0.2 or 2 μM IGFBP-3 present): no change in the signal
Aβ detected with anti-6E10 after immunodepletion ([13]; Figure 9B,E): decreased the amount of Aβ
anti-A11 oligomer signal after immunodepletion [13]: No difference
apoptosis after treatment with immunodepleted medium (A549 cells [14]): reduced apoptosis
apoptosis after treatment with immunodepleted medium (H1299 cells [16]): no effect
